Converted amounts (≈) assume the structure as drawn.
Tests used:
S. mutans ATCC 25175 [1] = assay: Minimum inhibitory concentration (MIC) assay; assay type: cell-based, Streptococcus mutans; settings: Table 8
Description: (§1) S. mutans was cultured and maintained on Wilkins-Chalgren Anaerobe Medium (agar and broth) at pH 7.0 supplemented with 1 g/L glucose; all cultures were incubated at 37° C. for 48 hours in an atmosphere containing 5% CO2. For the formation of biofilms in biofilm disruption assays, however, S. mutans was grown in brain-heart infusion broth supplemented with 5% sucrose. This is a standard international method for quantitatively assessing the antimicrobial activity of a compound in a liquid medium. The method used a sterile 96-well microtitre plate, capable of holding about 200 μl of liquid per well. […] The culture medium was as described above. The wells were inoculated with a liquid suspension of freshly grown micro-organism and incubated under the conditions described above. After incubation, the microtitre plate was examined visually (with the aid of a light box) for cloudiness in each well, which would indicate microbial growth. The MIC value was recorded as the lowest concentration of test compound required to inhibit microbial growth, ie the lowest concentration for which the liquid in the well remained clear. The assays were conducted in duplicate (minimum) and included both negative (culture medium with no micro-organisms) and positive (culture medium plus diluting solvent plus micro-organism) controls.

P. gingivalis NCTC 11834 [2] = assay: Minimum inhibitory concentration (MIC) assay; assay type: cell-based, Porphyromonas gingivalis; settings: Table 7
Description: as §1, with “P. gingivalis strains were cultured and” for “S. mutans was cultured and”, “at pH 7.0; all cultures” for “at pH 7.0 supplemented with 1 g/L glucose; all cultures”, “were incubated anaerobically at 37°” for “were incubated at 37°”, “C. for 5-7 days. This is” for “C. for 48 hours in an atmosphere containing 5% CO2. For the formation of biofilms in biofilm disruption assays, however, S. mutans was grown in brain-heart infusion broth supplemented with 5% sucrose. This is”

P. gingivalis NCTC 11834 [3] = assay: Minimum bactericidal concentration (MBC) assay; assay type: cell-based, Porphyromonas gingivalis; settings: Table 7
Description: P. gingivalis strains were cultured and maintained on Wilkins-Chalgren Anaerobe Medium (agar and broth) at pH 7.0; all cultures were incubated anaerobically at 37° C. for 5-7 days.
(§2) This assay, normally carried out after an MIC assay, determines the minimum concentration of a compound that is lethal to the micro-organism being tested.
(§3) These samples were then individually sub-cultured on antibiotic-free agar medium, under the incubation conditions described above. Following incubation they were examined visually for microbial growth.
(§4) The ratio of MIC to MBC should ideally be as close to 1 as possible.

S. mutans ATCC 25175 [4] = assay: Minimum bactericidal concentration (MBC) assay; assay type: cell-based, Streptococcus mutans; settings: Table 8
Description: S. mutans was cultured and maintained on Wilkins-Chalgren Anaerobe Medium (agar and broth) at pH 7.0 supplemented with 1 g/L glucose; all cultures were incubated at 37° C. for 48 hours in an atmosphere containing 5% CO2. For the formation of biofilms in biofilm disruption assays, however, S. mutans was grown in brain-heart infusion broth supplemented with 5% sucrose.
as §2, §3, §4

| SMILES | MIC (S. mutans ATCC 25175 [1]) | MIC (P. gingivalis NCTC 11834 [2]) | MBC (P. gingivalis NCTC 11834 [3]) | MIC/MBC ratio (P. gingivalis NCTC 11834 [3]) | MBC (S. mutans ATCC 25175 [4]) | MIC/MBC ratio (S. mutans ATCC 25175 [4]) |
| --- | --- | --- | --- | --- | --- | --- |
| Oc1ccc(O)c(F)c1F [2,3-difluoro-p-hydroquinone] | 125 µg/mL (≈ 856 µM) | 3.9 µg/mL (≈ 26.7 µM) | 7.8 µg/mL (≈ 53.4 µM) | 0.5 | 250 µg/mL (≈ 1710 µM) | 0.5 |
| CC(C)(C)c1cc(O)c(C(C)(C)C)cc1O [2,5-di-t-butyl-p-hydroquinone] | 250 µg/mL (≈ 1120 µM) | 15.6 µg/mL (≈ 70.2 µM) | 15.6 µg/mL (≈ 70.2 µM) | 1 | > 250 µg/mL | <0.5 |
| CCC(C)(C)c1cc(O)c(C(C)(C)CC)cc1O [2,5-di-t-pentyl-p-hydroquinone] | 125 µg/mL (≈ 499 µM) | 3.9 µg/mL (≈ 15.6 µM) | 3.9 µg/mL (≈ 15.6 µM) | 1 | 250 µg/mL (≈ 998 µM) | 0.5 |

Second part, led by results:

| MIC (S. mutans ATCC 25175 [1]) | MIC (P. gingivalis NCTC 11834 [2]) | SMILES | MBC (P. gingivalis NCTC 11834 [3]) | MIC/MBC ratio (P. gingivalis NCTC 11834 [3]) | MBC (S. mutans ATCC 25175 [4]) | MIC/MBC ratio (S. mutans ATCC 25175 [4]) |
| --- | --- | --- | --- | --- | --- | --- |
| 62.5 µg/mL (≈ 399 µM) | 0.98 µg/mL (≈ 6.26 µM) | CC1=CC(=O)C(Cl)=CC1=O [2-chloro-5-methyl-p-benzoquinone] | 1.95 µg/mL (≈ 12.5 µM) | 0.5 | 125 µg/mL (≈ 798 µM) | 0.5 |
| 31.2 µg/mL (≈ 226 µM) | 0.98 µg/mL (≈ 7.09 µM) | CCc1cc(O)ccc1O [2-ethyl-p-hydroquinone] | 1.95 µg/mL (≈ 14.1 µM) | 0.5 | 125 µg/mL (≈ 905 µM) | 0.25 |

Reference: patent US20100310478A1, “SUBSTITUTED BENZOQUINONES AND HYDROQUINONES IN THE TREATMENT OF PERIODONTAL DISEASES” (priority 2007, published 2010)
